From patent publication US7205417B2, “Spiro compounds” (Banyu Pharmaceutical Co., Ltd., priority 2001, dated 2007)

The compounds below were run against T1, human NPY Y5 receptor (Homo sapiens, UniProt Q15761) (assay: NPY binding inhibition test). Settings: [125I]peptideYY binding to membrane sample from cells expressing NPY Y5 receptor, 25° C., 2 hours; read-out: NPY receptors binding inhibition IC50.
T1 construct: expressed in transfected cells; host or cells: COS-7, CHO and LM(tk-) cells; vectors pcDNA3, pRc/RSV, pCI-neo; membrane preparation
T1 sequence (Q15761 1-445): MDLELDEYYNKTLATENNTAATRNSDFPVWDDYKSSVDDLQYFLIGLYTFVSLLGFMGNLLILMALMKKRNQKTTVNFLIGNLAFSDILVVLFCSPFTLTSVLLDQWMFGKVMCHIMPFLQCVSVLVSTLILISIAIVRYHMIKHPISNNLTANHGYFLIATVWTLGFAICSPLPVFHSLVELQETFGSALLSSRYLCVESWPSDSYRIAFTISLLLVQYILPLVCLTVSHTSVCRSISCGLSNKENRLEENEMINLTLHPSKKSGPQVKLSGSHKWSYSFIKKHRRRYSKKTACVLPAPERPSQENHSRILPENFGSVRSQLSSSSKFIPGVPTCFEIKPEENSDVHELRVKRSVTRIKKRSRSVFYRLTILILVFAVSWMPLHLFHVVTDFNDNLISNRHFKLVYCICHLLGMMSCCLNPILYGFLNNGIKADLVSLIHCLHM
Excerpt: Pharmacological Test (NPY Binding Inhibition Test)
A sequence coding for human NPY Y5 receptor (c.f. International patent publication number W096/16542) was cloned into expression vectors pcDNA3, pRc/RSV (made by Invitrogen Inc.) and pCI-neo (made by Promega Inc.). The expression vectors thus obtained were transfected to host cells COS-7, CHO and LM(tk-) (American Type Culture Collection) by cationic lipid method (Proceedings of the National Academy of Sciences of the United States of America, vol. 84: p. 7413(1987)) to give NPY Y5 receptor expression cells.
A membrane sample prepared from the cells which expressed NPY Y5 receptor was incubated together with a test compound and [^125I]peptideYY (made by NEN) (20,000 cpm) in an assay buffer (25 mM Tris buffer, pH 7.4, containing 10 mM magnesium chloride, 1 mM phenylmethylsulfonyl fluoride, 0.1% bacitracin and 0.5% bovine serum albumin) at 25° C. for 2 hours, then filtered through a glass filter GF/C and washed with 5 mM Tris buffer (pH7.4) containing 0.3% BSA. The radioactivity of the cake on the glass filter was measured. Non-specific binding was measured in the presence of 1 μM peptide YY, and 50% Inhibitory Concentration (IC50) of the test compound against specific peptideYY binding was determined (Endocrinology, vol. 131: p. 2090(1992)).

Row | IC50 | Compound
1 | 1.7 nM | O=C1OC2(CCC(C(=O)NC(CNCc3ccccc3)Cc3ccccc3)CC2)c2ccccc21 (centres unmarked) [Example 32]
2 | 2 nM | CS(=O)(=O)N1CC2(CCC(C(=O)NC(Cc3ccncc3)C(=O)NCc3ccccc3)CC2)c2ccccc21 (stereo not drawn) [Example 46, Trans-N-[1-benzylcarbamoyl-2-(4-pyridyl)ethyl]-1-methylsulfonylspiro[indoline-3,1′-cyclohexane]-4′-carboxamide]
3 | 1.2 nM | CS(=O)(=O)N1CC2(CCC(C(=O)NC3CCN(c4ccccc4)C3)CC2)c2ccccc21 [Example 41, Trans-1-methanesulfonyl-N-[(3S)-1-phenyl-3-pyrrolidinyl]spiro[indoline-3,1′-cyclohexane]-4′-carboxamide]
4 | 0.69 nM | CS(=O)(=O)N1CC2(CCC(C(=O)NC(CNCc3ccccc3)Cc3ccccc3)CC2)c2ccccc21 [Example 45, Trans-N-[(S)-1-benzyl-2-(benzylamino)ethyl]-1-methylsulfonylspiro[indoline-3,1′-cyclohexane]-4′-carboxamide]

The remaining lines, values behind:

Row | Compound | IC50
5 | O=C1OC2(CCC(C(=O)NC3CCC(c4ccccc4)CC3)CC2)c2ccccc21 (stereo not drawn) [Example 1, trans-3′-oxo-N-(trans-4-phenylcyclohexyl)-spiro[cyclohexane-1,1′(3′H)-isobenzofuran]-4-carboxamide] | 2.5 nM
6 | CS(=O)(=O)N1CC2(CCC(C(=O)NC3CCN(c4cccc(F)c4)CC3)CC2)c2ccccc21 (stereo not drawn) [Example 36, Trans-N-[1-(3-fluorophenyl)-4-piperidyl]-1-methanesulfonyl-spiro[indoline-3,1′-cyclohexane]-4′-carboxamide] | 0.8 nM
7 | O=C1OC2(CCC(C(=O)NC3CCN(c4ccccc4F)CC3)CC2)c2ccccc21 (stereo not drawn) [Example 5, Trans-N-[1-(2-fluorophenyl)-4-piperidyl]-3′-oxo-spiro[cyclohexane-1,1′(3′H)-isobenzofuran]-4-carboxamide] | 1.7 nM
8 | O=C1OC2(CCC(C(=O)NC3CCC(c4cccc(F)c4)CC3)CC2)c2ncccc21 (stereo not drawn) [Example 27, Trans-N-[trans-4-(3-fluorophenyl)cyclohexyl]-3-oxospiro[7-azaisobenzofuran-1(3H),1′-cyclohexane]-4′-carboxamide] | 3.6 nM
